The text below walks through data of patent publication US20230116399A1, “Tumor Homing Statin Derivatives” (Da Zen Theranostics, Inc., priority 2019, published 2023).

Usually IC50 stands for the concentration at which inhibition is half-maximal. A lower IC50 goes with greater potency.

The test system of assay [1] is 22Rv1 human prostate carcinoma tumors. Description: Tumor volume of 22Rv1 tumors grown subcutaneously in mice. Type of assay: in vivo. The settings on record: 5 mg/kg, intravenously injected. Here is the method: Example 1D: 22Rv1 human prostate carcinoma cells are cultured as described above, separated from the medium, resuspended in 50% phosphate buffered saline (PBS) and 50% BD Matrigel™ (BD Biosciences, CA), and then the re-suspended cells are injected and grown subcutaneously in mice. […] The decrease of the THSD in the tumors at 2 and 4 weeks, respectively, as determined by NIR signal, is less than about 30%.
Example 1E: 22Rv1 human prostate carcinoma cells are cultured, injected and grown subcutaneously in mice as described above in example 1D. Tumor volume is monitored by measuring the size by caliper and calculating volume as described in example 9 below. The mice are intravenously injected with the following: ALSD of formula FIId, “DZ2a”, compound 7, the corresponding unconjugated dye (here: DZ1), unconjugated Simvastatin, a statin drug (SIM), and docetaxel (DOC), a cancer drug, and a mixture of the ALSD with DOC. Each active was administered in an amount of 5 mg/kg for the ALSD, DZ1, and SIM, except, in case of DOC, 8 mg/kg. A slower rate of increased tumor volume indicates tumor suppressive activity.

The subject of assay [2] is 22RV1 prostate cancer cells. In words: Cholesterol levels in whole cells and mitochondria (LC-SIM). The assay is classed as cell-based, human. How it is done: Example 3E: Whole cells and mitochondria are prepared/treated as follows. 22RV1 prostate cancer cells are cultured as described herein-above. The cells are harvested, treated with Lithium dodecyl sulfate (LDS) detergent, then a whole cell fraction and an isolated mitochondrial fraction provided by centrifugation and the pellets are processed to determine their cholesterol levels as follows: cholesterol is extracted with hexane/methanol mixture (7:1, v/v), into which an appropriate amount of stable isotope-labeled d7-cholesterol standard (Avanti Polar Lipids) is spiked. Samples are sonicated in a water-bath, vortexed, and centrifuged at 16,000×g for 5 min at RT. The upper layers are dried down in a SpeedVac at RT. Then samples are incubated with 200 μL 10 mg/mL 4-(dimethylamino)phenyl isocyanate (DMAPI) in dichloromethane and 30 μL triethylamine at 65° C. for 1.5 h in a ThermoMixer. The reaction is quenched by phosphate buffer (pH 8.0), followed by extraction of DMAPI-labeled cholesterol with hexane and vacuum concentration in a SpeedVac. The dry residues are reconstituted in acetonitrile/isopropanol (1:1) and analyzed by liquid chromatography-selected ion monitoring (LC-SIM) using an Ultimate 3000 XRS liquid chromatography system connected to an Orbitrap Fusion Lumos mass spectrometer (Thermo Scientific). Following separation on a 5-cm Hypersil GOLD C18 column, DMAPI-derivatized endogenous cholesterol (m/z 549.442) and d7-cholesterol (m/z 556.485) are analyzed by time-scheduled SIM analysis on an Orbitrap Fusion Lumos. The acquired LC-SIM data are analyzed by Skyline for cholesterol quantification.

The test system of the next assay is 22RV1 (PC). Description: MTT cell viability, 22RV1. The conditions noted are these: Homo sapiens, 22Rv1, 22RV1, treated for 48 h /, relative IC50. Type of assay: cell-based, human. Here is the method: Cell culture: In the following examples, unless otherwise specified, all cell lines are purchased from American Type Culture Collection and cultured in American Type Culture Collection (ATCC)-recommended media, with fetal bovine serum (FBS) to a final concentration of 10% and 1×penicillin/streptomycin at 37° C. with 5% CO2 in a cell culture incubator, unless otherwise specified. Unless otherwise specified, culture is 2D. Where culture is 3D, low attachment plates are used, with the same media. C4-2B (parental cell line and drug-resistant cells derived therefrom) are cultured in RPMI-1640 with 10% FBS. MDVR cells (an Enzalutamide-resistant variety of C4-2B prostate cancer cells formed as described in Example 4 below) are cultured as indicated for the parental C4-2B cells. 22RV1 Prostate Cancer (PC) cells (ATCC® CRL-2505™, a human prostate carcinoma cell line of epithelial morphology) are cultured in RPMI-1640 with 10% FBS. A549 cells (ATCC® CCL-185™, a human lung carcinoma cell line of epithelial morphology) are cultured in F-12K medium with 10% FBS. A549/DDP cells (Cells were described in DOI: 10.3892/mmr.2014.2163 and in doi: 10.7150/jca.19426; cisplatin resistant cells may be established from exposing parental A549 cells to cisplatin for an extended time). MDR A549/cisplatin lung adenocarcinoma cell line, drug resistant) are cultured in F-12K medium with 10% FBS. H1975 cells (ATCC® CRL-5908™, a human adenocarcinoma non-small cell lung cancer cell line of epithelial morphology) are cultured in RPMI-1640 medium with 10% FBS; H1975 cells are a cell model for human lung cancer that is resistant to Gefitinib (an EGFR inhibitor drug used for treatment of certain breast, lung and other cancers). H1650 cells (ATCC® CRL-5883™, a adenocarcinoma/bronchoalveolar carcinoma lung cancer cell line of epithelial morphology) are cultured in RPMI-1640 medium with 10% FBS. […]
[…] For each cell line, the IC50 is determined for each drug, i.e. the ELSD, the ALSD, and for the corresponding unconjugated statin (Simvastatin), in concentrations from 0.1-100 μM. […]

Consider `CC1(C)C(/C=C/C2=C(Cl)C(=C/C=C3/N(CCCCCC(=O)O)c4ccccc4C3(C)C)/CCC2)=[N+](CCCCS(=O)(=O)[O-])c2ccccc21` [DZ1], for which the “tumor suppressive activity (tumor volume increase)” value in assay [1] was “no significant tumor suppressive activity”.
In the case of `CCC(C)(C)C(=O)O[C@H]1C[C@@H](C)C=C2C=C[C@H](C)[C@H](CC[C@@H]3C[C@@H](O)CC(=O)O3)[C@H]21` [Simvastatin], in assay [2] (mitochondrial fraction), the “Cholesterol, mitochondria” value is on record as 56 nmol Cholesterol per 10^7 cells and the “Cholesterol, mitochondria, relative to vehicle control (100%)” value is on record as 51%. The “Cholesterol, mitochondria, relative to vehicle control (100%)” value in assay [2] (mitochondrial fraction, listed as SIM) is given as “(51%)”. In addition, in assay [2] (whole cells), the “Cholesterol, whole cells” value is 102 nmol Cholesterol per 10^6 cells and the “Cholesterol, whole cells, relative to vehicle control (100%)” value worked out at 88%. Besides, the “Cholesterol, whole cells, relative to vehicle control (100%)” value in assay [2] (whole cells, listed as SIM) is “(88%)”. In the assay with 22RV1 (PC), this molecule gave an IC50 of 38.7 µM.
